The values that follow come from US9884126B2, “Anti-wall teichoic antibodies and conjugates” (priority 2013, dated 2018).

≈ marks a conversion by molar mass, not a printed value. Entries after “also recorded” stand apart in the source; their conditions may differ.

Assay [1] concerns USA300 strain of MRSA (NRS384). As to the kind of experiment: In vitro macrophage assay (intracellular killing of opsonized MRSA). Type of assay: cell-based, Staphylococcus aureus. The note with it: for Macrophage assay activity: in vitro macrophage assay (Example 18), grades 0, weak, 1+ not defined; for CFU/well after treatment: 100 μg/mL, reduced from 10,000 CFU/well. How it is done: (§1) Peritoneal macrophages were isolated from the peritoneum of 6-8 week old Balb/c mice (Charles River Laboratories, Hollister, Calif.). To increase the yield of macrophages, mice were pre-treated by intraperitoneal injection with 1 mL of thioglycolate media (Becton Dickinson). The thioglycolate media was prepared at a concentration of 4% in water, sterilized by autoclaving, and aged for 20 days to 6 months prior to use. Peritoneal macrophages were harvested 4 days post treatment with thioglycolate by washing the peritoneal cavity with cold phosphate buffered saline. Macrophages were plated in Dulbecco's Modified Eagle Medium (DMEM) supplemented with 10% Fetal Calf Serum, and 10 mM HEPES, without antibiotics, at a density of 4×10^5 cells/well in 24 well culture dishes. Macrophages were cultured over night to permit adherence to the plate. This assay was also utilized to test intracellular killing in non-phagocytic cell types. MG63 (CRL-1427) and A549 (CCL185) cell lines were obtained from ATCC and maintained in RPMI 1640 tissue culture media supplemented with 10 mM Hepes and 10% Fetal Calf Serum (RPMI-10). HUVEC cells were obtained from Lonza and maintained in EGM Endothelial Cell Complete Media (Lonza, Walkersville, Md.).

Assay [2] deals with MRSA (NRS384 strain of USA300). As to the kind of experiment: MIC determination for extracellular bacteria. The conditions noted are these: Staphylococcus aureus, read-out: Extracellular MRSA MIC. Type of assay: cell-based. How it is done: Dilutions of the antibiotic were made in quadruplicate in 96 well culture dishes. MRSA (NRS384 strain of USA300) was taken from an exponentially growing culture and diluted to 1×10^4 CFU/mL. Bacteria was cultured in the presence of antibiotic for 18-24 hours with shaking at 37° C. and bacterial growth was determined by reading the Optical Density (OD) at […]. The MIC was determined to be the dose of antibiotic that inhibited bacterial growth by >90%.

Assay [3] deals with MRSA (NRS384 strain of USA300). The experiment in a line: MIC determination / killing of intracellular bacteria in mouse peritoneal macrophages. Type of assay: cell-based, Staphylococcus aureus. The conditions noted are these: for killing of intracellular MRSA sequestered inside macrophages: doses including clinically achieveable serum levels.
For assay [4], the system named is MRSA (USA300 strain). The experiment in a line: Intracellular killing in macrophages and non-phagocytic cell types (MG63, A549, HUVEC). Type of assay: cell-based, Staphylococcus aureus. The conditions noted are these: 50 μg/mL, macrophages.
Text: MRSA is able to invade a number of non-phagocytic cell types including osteoblasts and various epithelial and endothelial cell types (Garzoni and Kelly, (2008) Trends in Microbiology). MRSA is able to infect an osteoblast cell line (MG63), an airway epithelial cell line (A549) and primary cultures of human umbilical vein endothelial cells (HUVEC). […] The dashed line indicates the limit of detection for the assay.
as §1, with “MG63 (CRL-1427) and A549 (CCL185) cell lines were obtained from ATCC and maintained in RPMI 1640 tissue culture media supplemented with 10 mM Hepes and 10% Fetal Calf Serum (RPMI-10). HUVEC cells were obtained from Lonza and maintained in EGM Endothelial Cell Complete Media (Lonza, Walkersville, Md.).” left out

A further assay relates to MRSA (USA300). As to the kind of experiment: Peritonitis model (intraperitoneal infection). The class given is in vivo, A/J mice. The conditions noted are these: 50 mg/Kg thirty minutes after infection; 2 days. The text has this:
An in vivo peritonitis model in mice was established to test the efficacy of AAC. In this model, mice are infected by intraperitoneal injection (I.P.) of MRSA and the bacterial load is monitored 2 days after infection in the peritoneal fluid and kidney. Bacteria harvested from the peritoneum could be found either as free floating extracellular bacteria or internalized inside peritoneal cells—primarily neutrophils and macrophages—that are recruited to the site of the infection.
Intraperitoneal infection model in A/J mice. Mice were infected with 5×10^7 CFU of MRSA by intraperitoneal injection and treated with 50 mg/Kg of S4497 antibody alone or with 50 mg/Kg of the S4497-pipBOR AAC 102 by intraperitoneal injection (protocol 11-2032A). Mice were sacrificed 2 days post infection and the total bacterial load was assessed in the peritoneal supernatant (Extracellular bacteria), peritoneal cells (Intracellular bacteria) or in the kidney.
A/J mice were infected with USA300 and administered 50 mg/Kg of either S4497 antibody or S4497-pipBOR AAC 102 thirty minutes after infection. After 2 days, the mice were sacrificed and bacterial loads were monitored in the peritoneal wash and the kidney. To distinguish between extracellular and intracellular bacteria, the peritoneal wash was centrifuged gently to separate the supernatant, containing extracellular bacteria, and the peritoneal cells. […]

Assay [5] deals with MRSA (USA300 strain). As to the kind of experiment: Intravenous infection model in A/J mice. The class given is in vivo.
Assay [6] has as its system MRSA. The experiment in a line: Cathepsin release / growth inhibition assay. The class given is cell-based, S. aureus. The note with it: overnight culture, up to 10 μg/mL of AAC. How it is done:
An AAC comprising antibody rF1, which binds to a family of cell wall associated proteins was conjugated to a rifamycin derivative. S. aureus (Newman strain) was treated with various doses of the rF1-AAC or with equivalent doses of either antibody alone, rifampicin alone or a mixture of antibody and free rifampicin to permit antibody binding to the bacteria (opsonization) and after 1 hour incubation the opsonized bacteria were fed to macrophages (FIG. 7A).
See: page 863 of Dubowchik et al (2002) Bioconj. Chem. 13:855-869, incorporated by reference for the purposes of this assay. Cathepsin B (from bovine spleen, SIGMA C7800) was added at 10 μg/mL and the samples were incubated for 1 hour at 37° C. As a control, AAC were incubated in buffer alone. The reaction was stopped by addition of 10 volumes of bacterial growth media, Tryptic Soy Broth pH 7.4 (TSB). To estimate the total release of active antibiotic, serial dilutions of the reaction mixture were made in quadruplicate in TSB in 96 well plates and the USA300 strain of S. aureus was added to each well at a final density of 2×10^3 CFU/mL. The cultures were incubated over night at […] with shaking and bacterial growth was measured by reading absorbance at 630 nm using a plate reader.

The subject of assay [7] is MRSA. As to the kind of experiment: Intravenous infection model, established infection in CB17.SCID mice. The class given is in vivo. The conditions noted are these: treated 1 day after infection; AAC 50 mg/Kg, antibiotic 0.5 mg/Kg; kidneys day 4. How it is done: Mice were treated with the AAC 30 minutes after infection. To better replicate conditions likely to occur in MRSA patients seeking treatment, it was determined whether the AAC is effective at clearing an established infection and that linking of the antibiotic to an anti-S. aureus antibody provides a definite advantage over treatment with antibiotic alone. To this end, the efficacy of AAC with an equivalent dose of the antibiotic dimethyl-pipBOR was compared.
One day after infection, the mice were treated with 50 mg/Kg of S4497 antibody, 50 mg/Kg of S4497 dimethyl-pipBOR AAC 105 or with 0.5 mg/Kg of dimethyl-pipBOR antibiotic 7, the equivalent dose of antibiotic that is contained in 50 mg/Kg of AAC). Mice were sacrificed 4 days after infection and the total number of surviving bacteria per mouse (2 kidneys pooled) was determined by plating.
7 week old female mice were used for all in vivo experiments and infections were carried out by intravenous injection into the tail vein. A/J mice (Jackson Lab) were infected with a dose of 2×10^6 CFU. Balb/c mice (Charles River Laboratories, Hollister, Calif.) were infected with a dose of 2×10^7 CFU. […] The total number of bacteria recovered per mouse (2 kidneys) was determined by plating serial dilutions of the tissue homogenate in PBS 0.05% Tween on Tryptic Soy Agar with 5% defibrinated sheep blood.

The molecule “thio-S4497-HC-A118C-MC-vc-PAB-(novobiocin) [AAC 102]” gave a Macrophage assay activity in assay [1] of 0. On the same count and under the same terms, for “thio-S4497-v8-LC-V205C-(azithromycin) [AAC 121]” the value was 0. As to `CCCCCCCCCC(=O)N[C@@H](Cc1c[nH]c2ccccc12)C(=O)N[C@H](CC(N)=O)C(=O)N[C@@H](CC(=O)O)C(=O)N[C@@H]1C(=O)NCC(=O)N[C@@H](CCCN)C(=O)N[C@@H](CC(=O)O)C(=O)N[C@H](C)C(=O)N[C@@H](CC(=O)O)C(=O)NCC(=O)N[C@H](CO)C(=O)N[C@@H]([C@H](C)CC(=O)O)C(=O)N[C@@H](CC(=O)c2ccccc2N)C(=O)O[C@@H]1C` [Daptomycin], the MIC in assay [2] was 4 µg/mL (≈ 2.47 µM); in assay [3] (Staphylococcus aureus, 24 h, MRSA inside mouse peritoneal macrophages, […]), more than 100 µg/mL. Moreover, the “killing of intracellular MRSA sequestered inside macrophages” value in assay [3] is listed as “failed to kill”. Take “thio-S4497-HC-A118C-MC-vc-PABC-(teicoplanin) [AAC 108]”: in assay [1], the CFU/well after treatment result was “about 500 CFU/well” and the Macrophage assay activity result is on record as “weak”. In turn, “thio-S4497-v8-LC-V205C-(thiostrepton) [AAC 141]” yielded a Macrophage assay activity in assay [1] of 0.

As to “thio-S4497-v8-LC-V205C-MC-vc-PABC-(teicoplanin) [AAC 140]”, in assay [1], the Macrophage assay activity is 0. Still for that read-out and setting: for “thio-S4497-HC-A118C-MC-vc-PAB-(clindamycin) [AAC 101]” the value was 0. “thio-S4497-HC-A118C-MC-vc-PABC-(pipBOR) [S4497-pipBOR AAC 102]”: the “intracellular killing of MRSA” value in the assay with MRSA (USA300 strain) [4] is “effectively killed”. Also, in the assay on MRSA (USA300), the “clearance of infection (peritoneal wash and kidney)” value is “cleared the infection to below the limit of detection”. Also, in the assay with MRSA (USA300 strain) [5] (50 mg/Kg IV 30 minutes post infection, kidneys 4 days post infection), the “efficacy at 50 mg/Kg (kidney bacterial load)” value is on record as “cleared the infection in all of the mice tested; also recorded: effective”. In the assay on MRSA (USA300 strain) [5] (doses below 50 mg/Kg down to 2 m/Kg, 30 minutes after infection), the “efficacy at lower doses” value is reported as “only partially efficacious”. In addition, the “inhibition of bacterial growth by AAC not pre-treated with cathepsin B” value in the assay on MRSA [6] is given as “did not result in inhibition of bacterial growth”.

Consider “thio-S4497-HC-A118C-MC-vc-PABC-(ampicillin) [AAC 113]”, for which the Macrophage assay activity in assay [1] came out at 0. As to `CO[C@H]1/C=C/O[C@@]2(C)Oc3c(C)c(O)c4c(=O)c(c5oc6cc(N7CCC(N(C)C)CC7)cc(O)c6nc-5c4c3C2=O)NC(=O)/C(C)=C\C=C\[C@H](C)[C@H](O)[C@@H](C)[C@@H](O)[C@@H](C)[C@H](OC(C)=O)[C@@H]1C` [dimethyl-pipBOR, dimethylpiperidyl benzoxazino rifamycin], in assay [3], the “killing of intracellular MRSA as free antibiotics relative to rifampicin” value is reported as “more potent than rifampicin”. The “efficacy against established infection” value in the assay on MRSA [7] is “failed to clear the infection”. As to “piperidyl benzoxazino rifamycin [pipBOR]”, the “killing of intracellular MRSA as free antibiotics relative to rifampicin” value in assay [3] was “more potent than rifampicin”.

For the molecule “thio-S4497-HC-A118C-MC-vc-PABC-(daptomycin) [AAC 104]”, in assay [1], the Macrophage assay activity amounted to 0. The same measure, in the same setting: for “thio-S4497-v8-LC-cys-MC-vc-PAB-(nosiheptide) [AAC 149]” the value was 0. On the same count and under the same terms, with “thio-S4497-HC-A118C-MC-vc-PABC-(GSK-2140944) [AAC 105]” the figure was 0. As to “thio-S4497-HC-A118C-MC-vc-PABC-(sitafloxacin) [AAC 107]”, in assay [1], the CFU/well after treatment result is reported as “about 5,000 CFU/well” and the Macrophage assay activity result is given as “weak”. Turning to `CC(=O)NC[C@H]1CN(c2ccc(N3CCOCC3)c(F)c2)C(=O)O1` [Linezolid], the “killing of intracellular MRSA sequestered inside macrophages” value in assay [3] is listed as “failed to kill”. In assay [1], “thio-S4497-HC-A118C-MC-vc-PAB-(triclosan) [AAC 109]” returned a Macrophage assay activity of 0.

The molecule “thio-S4497 WT (V8), LC V205C-(thiostrepton) [AAC 128]” came in with a Macrophage assay activity in assay [1] of 0. The same measure, in the same setting: for “thio-S4497-HC-A118C-MC-vc-PAB-(retapamulin) [AAC 103]” the value was 0.
